Results reported in patent US6479435B1, “Diaryl ethers and processes for their preparation and herbicidal and desiccant compositions containing them” (ISK Americas Incorporated, priority 1997, dated 2002).

Legend:
Format in all cases: in vivo
[1] = tested on: sicklepod (Cassia obtusifolia, CASOB); assay: Pre-emerge greenhouse herbicide test, phytotoxicity rating; settings: 14 days after application, rating scale 0-100
In short: (§1)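 Seeds sown in sandy loam one day before track-sprayer application of acetone solutions at 125–1000 g ai/ha (187 l/ha), then surface-watered to incorporate and bottom-watered. Injury scored visually at 14 days on a 0–100 scale (0 no damage, 100 complete death).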

[2] = tested on: ivyleaf morningglory (Ipomoea hederacea, IPOHE); assay: as above; settings: 14 days after application, rating scale 0-100
In short: as §1

[3] = tested on: common ragweed (Ambrosia artemisiifolia L., AMBEL); assay: as above; settings: 14 days after application, rating scale 0-100
In short: as §1

[4] = tested on: green foxtail (Setaria viridis, SETVI); assay: as above; settings: 14 days after application, rating scale 0-100
In short: as §1

[5] = tested on: Johnsongrass (Sorghum halepense, SORHA); assay: as above; settings: 14 days after application, rating scale 0-100
In short: as §1

[6] = tested on: barnyardgrass (Echinochloa crusgalli, ECHCG); assay: as above; settings: 14 days after application, rating scale 0-100
In short: as §1

[7] = tested on: large crabgrass (Digitaria sanguinalis, DIGSA); assay: as above; settings: 14 days after application, rating scale 0-100
In short: as §1

[8] = tested on: redroot pigweed (Amaranthus retroflexus, AMARE); assay: as above; settings: 14 days after application, rating scale 0-100
In short: as §1

[9] = tested on: lambsquarters (Chenopodium album, CHEAL); assay: as above; settings: 14 days after application, rating scale 0-100
In short: as §1

[10] = tested on: velvetleaf (Abutilon theophrasti, ABUTH); assay: as above; settings: 14 days after application, rating scale 0-100
In short: as §1

[11] = tested on: common ragweed (Ambrosia artemisiifolia L., AMBEL); assay: Post-emerge greenhouse herbicide test, phytotoxicity rating; settings: 14 days after application
In short: (§2)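 Plants at the 2-3 leaf stage, sown 8-21 days earlier, were track-sprayed post-emergence with compound in acetone plus 0.25% v/v non-ionic surfactant at 63-1000 g ai/ha (187 l/ha). Damage was rated at 14 days on a 0-100 scale (0 none, 100 all plants dead), for both crop injury and weed control.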

[12] = tested on: soybean (Glycine max L., var. Pella 86, SOY); assay: Pre-emerge greenhouse test, crop damage rating; settings: 14 days after application, rating scale 0-100
In short: as §1

[13] = tested on: upland rice (Oryza sp., var.Tebonnet, RICE); assay: Post-emerge greenhouse test, crop damage rating; settings: 14 days after application
In short: as §2

[14] = tested on: field corn (Zea mays L., var. Dekalb 535, CORN); assay: Post-emerge greenhouse test, crop damage rating; settings: 14 days after application
In short: as §2

[15] = tested on: sicklepod (Cassia obtusifolia, CASOB); assay: Post-emerge greenhouse herbicide test, phytotoxicity rating; settings: 14 days after application
In short: as §2

[16] = tested on: ivyleaf morningglory (Ipomoea hederacea, IPOHE); assay: as above; settings: 14 days after application
In short: as §2

[17] = tested on: green foxtail (Setaria viridis, SETVI); assay: as above; settings: 14 days after application
In short: as §2

[18] = tested on: Johnsongrass (Sorghum halepense, SORHA); assay: as above; settings: 14 days after application
In short: as §2

[19] = tested on: barnyardgrass (Echinochloa crusgalli, ECHCG); assay: as above; settings: 14 days after application
In short: as §2

[20] = tested on: large crabgrass (Digitaria sanguinalis, DIGSA); assay: as above; settings: 14 days after application
In short: as §2

[21] = tested on: redroot pigweed (Amaranthus retroflexus, AMARE); assay: as above; settings: 14 days after application
In short: as §2

[22] = tested on: lambsquarters (Chenopodium album, CHEAL); assay: as above; settings: 14 days after application
In short: as §2

[23] = tested on: velvetleaf (Abutilon theophrasti, ABUTH); assay: as above; settings: 14 days after application
In short: as §2

[24] = tested on: upland rice (Oryza sp., var.Tebonnet, RICE); assay: Pre-emerge greenhouse test, crop damage rating; settings: 14 days after application, rating scale 0-100
In short: as §1

[25] = tested on: field corn (Zea mays L., var. Dekalb 535, CORN); assay: Pre-emerge greenhouse test, crop damage rating; settings: 14 days after application, rating scale 0-100
In short: as §1

[26] = tested on: soybean (Glycine max L., var. Pella 86, SOY); assay: Post-emerge greenhouse test, crop damage rating; settings: 14 days after application
In short: as §2

O=c1n(-c2cc(Oc3ccc([N+](=O)[O-])cc3)c(Cl)cc2F)c(=S)n2n1CCCC2 [Compound 8-8]
phytotoxicity rating CASOB ([1]; 125 g ai/ha): 0
phytotoxicity rating CASOB ([1]; 500 g ai/ha): 80
phytotoxicity rating IPOHE ([2]; 125 g ai/ha): 0
phytotoxicity rating IPOHE ([2]; 500 g ai/ha): 10
phytotoxicity rating AMBEL ([3]; 125 g ai/ha): 0
phytotoxicity rating AMBEL ([3]; 500 g ai/ha): 20
phytotoxicity rating SETVI ([4]; 125 g ai/ha): 60
phytotoxicity rating SETVI ([4]; 500 g ai/ha): 95
phytotoxicity rating SORHA ([5]; 125 g ai/ha): 30
phytotoxicity rating SORHA ([5]; 500 g ai/ha): 30
phytotoxicity rating ECHCG ([6]; 125 g ai/ha): 0
phytotoxicity rating ECHCG ([6]; 500 g ai/ha): 20
phytotoxicity rating DIGSA ([7]; 125 g ai/ha): 40
phytotoxicity rating DIGSA ([7]; 500 g ai/ha): 40
phytotoxicity rating AMARE ([8]; 125 g ai/ha): 100
phytotoxicity rating AMARE ([8]; 500 g ai/ha): 100
phytotoxicity rating CHEAL ([9]; 125 g ai/ha): 0
phytotoxicity rating CHEAL ([9]; 500 g ai/ha): 10
phytotoxicity rating ABUTH ([10]; 125 g ai/ha): 90
phytotoxicity rating ABUTH ([10]; 500 g ai/ha): 100
AMBEL phytotoxicity rating (0-100) ([11]; 63 g al/ha): 30
AMBEL phytotoxicity rating (0-100) ([11]; 500 g al/ha): 40
crop damage rating SOY ([12]; 125 g ai/ha): 0
crop damage rating SOY ([12]; 500 g ai/ha): 20
RICE crop damage rating (0-100) ([13]; 63 g al/ha): 0
RICE crop damage rating (0-100) ([13]; 500 g al/ha): 10
CORN crop damage rating (0-100) ([14]; 63 g al/ha): 10
CORN crop damage rating (0-100) ([14]; 500 g al/ha): 10
CASOB phytotoxicity rating (0-100) ([15]; 63 g al/ha): 40
CASOB phytotoxicity rating (0-100) ([15]; 500 g al/ha): 40
IPOHE phytotoxicity rating (0-100) ([16]; 63 g al/ha): 90
IPOHE phytotoxicity rating (0-100) ([16]; 500 g al/ha): 50
SETVI phytotoxicity rating (0-100) ([17]; 63 g al/ha): 20
SETVI phytotoxicity rating (0-100) ([17]; 500 g al/ha): 30
SORHA phytotoxicity rating (0-100) ([18]; 63 g al/ha): 10
SORHA phytotoxicity rating (0-100) ([18]; 500 g al/ha): 0
ECHCG phytotoxicity rating (0-100) ([19]; 63 g al/ha): 10
ECHCG phytotoxicity rating (0-100) ([19]; 500 g al/ha): 0
DIGSA phytotoxicity rating (0-100) ([20]; 63 g al/ha): 0
DIGSA phytotoxicity rating (0-100) ([20]; 500 g al/ha): 0
AMARE phytotoxicity rating (0-100) ([21]; 63 g al/ha): 95
AMARE phytotoxicity rating (0-100) ([21]; 500 g al/ha): 100
CHEAL phytotoxicity rating (0-100) ([22]; 63 g al/ha): 99
CHEAL phytotoxicity rating (0-100) ([22]; 500 g al/ha): 100
ABUTH phytotoxicity rating (0-100) ([23]; 63 g al/ha): 95
ABUTH phytotoxicity rating (0-100) ([23]; 500 g al/ha): 100
crop damage rating RICE ([24]; 125 g ai/ha): 0
crop damage rating RICE ([24]; 500 g ai/ha): 0
crop damage rating CORN ([25]; 125 g ai/ha): 5
crop damage rating CORN ([25]; 500 g ai/ha): 0
SOY crop damage rating (0-100) ([26]; 63 g al/ha): 25
SOY crop damage rating (0-100) ([26]; 500 g al/ha): 75
